Laboratory results as given in BindingDB's records for doi:10.1074/jbc.M110.181594 (Institut Pasteur, 2010).

Biological target: T1, 2'-deoxynucleoside 5'-phosphate N-hydrolase 1 (Rattus norvegicus, UniProt O35820)
T1 sequence (O35820 whole entry): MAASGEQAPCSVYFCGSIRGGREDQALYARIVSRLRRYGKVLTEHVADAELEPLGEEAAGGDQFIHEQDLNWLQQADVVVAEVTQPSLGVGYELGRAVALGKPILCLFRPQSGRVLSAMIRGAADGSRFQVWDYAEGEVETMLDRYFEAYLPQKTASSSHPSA
Test: Inhibition Assay
From the text: Rcl inhibition by nucleotides.

| SMILES | Ki [µM] |
| --- | --- |
| Nc1ncnc2c1ncn2C1OC(COP(O)(O)=S)C(O)C1O (centres undefined) [5'-AMPS] | 14 |
| Nc1nc(=O)c2ncn(COCCOP(=O)(O)O)c2[nH]1 [Acyclovir 5'-monophosphate] | 57 |
| O=c1[nH]c(=O)c2ncn(C3OC(COP(=O)(O)O)C(O)C3O)c2[nH]1 (centres undefined) [XMP] | 54 |
| NC(=O)c1ncn(C2OC(COP(=O)(O)O)C(O)C2O)c1N (centres undefined) [[5-(5-amino-4-carbamoyl-1H-imidazol-1-yl)-3,4-dihydroxyoxolan-2-yl]methyl phosphate] | 52 |
